Results on one compound are retold here after US9168243B2, “Pharmaceutical compositions comprising 8-substituted dibenzylbutyrolactone lignans” (priority 2010, dated 2015).

In one data set the test system is phospho-GSK-3β(ser9). As to the kind of experiment: Western blot of GSK-3β / phospho-GSK-3β(ser9). The format is cell-based. The settings on record: LNCaP +/- 1 nM androgen; 100 μM NTG, 0-8 hours. The method, then: Whole cell lysates were prepared by lysing floating and attached cells in Laemmli sample buffer and boiling the samples for 10 minutes. Proteins were separated by SDS-PAGE and transferred on PVDF membrane (Millipore). Western blotting was performed using antibodies against Akt, phospho-Akt (Ser473), GSK-3β, phospho-GSK-3β (Ser9) and phospho-EGF receptor Tyr(1068) (Cell Signalling Technology), Actin (clone AC-40; Sigma-Aldrich), PI3K p85α (clone 4/PI3-Kinase; BD Pharmingen), EGF receptor, Insulin receptor β and IGF-I receptor β (Santa Cruz Biotechnology), and Phospho-tyrosine (clone 4G10; Millipore). HRP-conjugated secondary antibodies were from Southern Biotechnology Associates, Promega, and Amersham Biosciences. The results were visualized using the ECL method (Amersham Biosciences) on x-ray film. The presented Western blot results are representative of at least three independent experiments. […]
LNCaP cells (+/−1 nM androgen) were treated with 0-100 μM enterolactone (ENL), matairesinol (MAT) or NTG for 1 hour prior to preparation of total cell lysates (FIG. 4A). The relative decrease in pAkt/Akt ratio was quantified from western blot analysis with Akt (60 kDa) and phospho-Akt(ser473) (Mean±SEM; n=4; Student's t-test *p<0.05, **p<0.01). […] The western blot analysis with Akt, phospho-Akt(ser473), GSK-3β and phospho-GSK-3β(ser9) was quantified. […]

The test system of data set [1] is LNCaP cells. As to the kind of experiment: Apoptosis after prolonged incubation with NTG alone. Format: cell-based. Conditions: 0-100 μM NTG, 24-72 h.
For data set [2], the system named is DMBA-induced mammary tumors. Conditions: cited from earlier work.
Data set [3] deals with non-malignant prostate epithelial RWPE-1 cells. Briefly: Caspase-3 activation by flow cytometry in a non-malignant prostate cell line. Format: cell-based. The settings on record: 40 μM NTG 1 h before izTRAIL in different concentrations, 20 h. The method, then:
The LNCaP prostate cancer cells (clone FGC; EACC) were cultured in RPMI-1640 medium (Sigma-Aldrich) supplemented with 10% fetal calf serum (BioClear), 2 mM L-glutamin, 100 U/ml penicillin, 100 μg/ml streptomycin and 1 mM sodium pyruvate (Sigma-Aldrich). One day prior to treatment medium was changed to phenol red free RPMI-1640 (Gibco) with or without 1 nM synthetic androgen (Mibolerone). This medium was supplemented with 10% charcoal/dextran treated fetal bovine serum (Hyclone), L-glutamine, penicillin and streptomycin. SV40 transformed prostate epithelial RWPE-1 cell line was kindly provided by Professor Olli Kallioniemi. […]
Flow cytometric analysis of apoptosis with HTS platform was performed on cells that were plated on a 96-well plate as triplicate samples. […] After 10 minutes incubation at room temperature, the plate was analyzed with LSRII flow cytometer equipped with HTS platform (PE-A channel). […] The plate was analyzed with LSRII flow cytometer equipped with HTS platform (FSC, PE-A channel). […] Activated caspase-3 in cells was labeled with phycerythrin (PE)-conjugated antibody according to manufacturer's protocol (BD Pharmingen) and analyzed by FacsCalibur flow cytometer (FL-2, FSC). […]
(In flow cytometry, cells or beads pass a laser one at a time.)

For data set [4], the system named is LNCaP cells. Briefly: Clonogenic assay. The format is cell-based. Conditions: 11 days. Here is the method: Five hundred LNCaP cells were plated in 1 ml of culture medium and let to adhere prior to addition of the indicated treatments. After 11 days of incubation, cell colonies were fixed with glutaraldehyde (6.0% v/v), stained with crystal violet (0.5% w/v) and imaged using a digital camera.
To investigate the effects of NTG alone and in combination with TRAIL on colony formation ability, the LNCaP cells were plated in low confluency and treated for 11 days.

For data set [5] the following is noted: cited from earlier work.

For `COc1cc(CC2COC(=O)C2(O)Cc2ccc(O)c(OC)c2)ccc1O` (stereo not drawn) [NTG, Nortrachelogenin], in the data set with phospho-GSK-3β(ser9), the “GSK-3β phosphorylation (pGSK-3β/GSK-3β ratio)” value is “downregulates Akt and GSK-3β phosphorylation”. Also, the “induction of apoptosis by NTG alone” value in the data set with LNCaP cells [1] is listed as “did not induce apoptosis”. Further, the “growth of DMBA-induced mammary tumors” value in data set [2] (during promotion and early progression) is given as “did not inhibit the growth of DMBA-induced mammary tumors”. Also, the endocrine-modulatory effects result in data set [2] (long-term experiments) is recorded as “weak endocrine-modulatory effects”. In data set [3], the “sensitization of non-malignant cells to TRAIL (caspase-3 activation)” value is on record as “did not display any sensitization to TRAIL”. Further, in the data set with LNCaP cells [4] (10 ng/ml TRAIL or 40 μM NTG alone), the “colony formation ability, single agent” value is listed as “clearly inhibited the growth of the plated cells”. Besides, the “colony formation ability, NTG and TRAIL in combination” value in the data set with LNCaP cells [4] (40 μM NTG and 10 ng/ml TRAIL) was “significant death of the cells that were seeded”. The “conversion into the mammalian lignans” value in data set [5] (in vivo) was “not known to be converted into the mammalian lignans, ENL or END”. In data set [5] (urine), the absorption and excretion entry was “absorbed and excreted in urine as such”.
